Test: Dissolution of dye powder in CP/DMSO 80/20 mixture
Type: physicochemical
Conditions: stirred 24 hours at room temperature

CC(=O)OCCN(CCC#N)c1ccc(N=Nc2nc3ccc([N+](=O)[O-])cc3s2)cc1 [Disperse Red 177, 2-((2-cyanoethyl)(4-((6-nitrobenzothiazol-2-yl)azo)phenyl)amino)ethyl acetate]
Dissolution in CP/DMSO 80/20 mixture (2.5 grams powder in 22.5 grams CP/DMSO 80/20): completely dissolved

CCN(CCO)c1ccc(N=Nc2ccc([N+](=O)[O-])cc2)cc1 [Disperse Red 1, N-Ethyl-N-(2-hydroxyethyl)-4-(4-nitrophenylazo)aniline]
Dissolution in CP/DMSO 80/20 mixture (2.5 gram powder in 22.5 grams CP/DMSO 80/20, followed by 4 hours at 40° C.): completely dissolved
